# Experimental data as given in PubChem BioAssay (NCI).
#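 Tested at 5 concentrations; 48 h exposure; 96-well plates; endpoints linearly interpolated, else capped at highest concentration. Here, GI50 denotes the concentration required for 50% inhibition of growth. TGI: concentration producing complete growth inhibition.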
# Key:
# Experiment in all cases: NCI anticancer screen, dose series, 48 h
# [1] = tested on: SK-MEL-2 melanoma
# [2] = tested on: SK-MEL-28 melanoma
# [3] = tested on: SW-620 colon
# [4] = tested on: RXF 393 renal
# [5] = tested on: OVCAR-8 ovarian
# [6] = tested on: M14 melanoma
# [7] = tested on: 786-0 renal
# [8] = tested on: SF-539 CNS
# [9] = tested on: SNB-75 CNS
# [10] = tested on: EKVX NSCLC
# [11] = tested on: SK-OV-3 ovarian
# [12] = tested on: CCRF-CEM leukemia
# [13] = tested on: NCI-H23 lung
# [14] = tested on: U251 CNS
# [15] = tested on: IGROV1 ovarian
# [16] = tested on: HCC-2998 colon
# [17] = tested on: SN12C renal
# [18] = tested on: DU-145 prostate
# [19] = tested on: HCT-116 colon
# [20] = tested on: T-47D breast
# [21] = tested on: MCF7 breast
# [22] = tested on: OVCAR-4 ovarian
# [23] = tested on: COLO 205 colon
# [24] = tested on: SK-MEL-5 melanoma
# [25] = tested on: LOX IMVI melanoma
# [26] = tested on: NCI/ADR-RES ovarian
# [27] = tested on: OVCAR-5 ovarian
# [28] = tested on: OVCAR-3 ovarian
# [29] = tested on: UACC-257 melanoma
# [30] = tested on: MOLT-4 leukemia
# [31] = tested on: MDA-N
# [32] = tested on: CAKI-1 renal
# [33] = tested on: HT29 colon
# [34] = tested on: A498 renal
# [35] = tested on: HL-60(TB) leukemia
# [36] = tested on: HS 578T breast
# [37] = tested on: PC-3 prostate
# [38] = tested on: A549 NSCLC
# [39] = tested on: K-562 leukemia
# [40] = tested on: MALME-3M melanoma
# [41] = tested on: TK-10 renal
# [42] = tested on: ACHN renal
# [43] = tested on: SF-268 CNS
# [44] = tested on: NCI-H460 lung
# [45] = tested on: UACC-62 melanoma
# [46] = tested on: RPMI-8226 leukemia
# [47] = tested on: SR leukemia
# [48] = tested on: NCI-H522 lung
# [49] = tested on: SF-295 CNS
# [50] = tested on: NCI-H226 lung
# [51] = tested on: MDA-MB-435
# [52] = tested on: KM12 colon
# [53] = tested on: HCT-15 colon
# [54] = tested on: MDA-MB-231 breast
# [55] = tested on: HOP-62 NSCLC
# [56] = tested on: SNB-19 CNS
# [57] = tested on: UO-31 renal
smiles,measurement,setting,value
O=C1Oc2ccccc2C(=O)/C1=C/N1C(=O)/C(=C/c2ccc3c(c2)OCO3)SC1=S,TGI,[1],34.2 µM
same,TGI,[2],36.8 µM
same,TGI,[3],43.5 µM
same,TGI,[4],40.2 µM
same,TGI,[5],40.9 µM
same,TGI,[6],31.9 µM
same,TGI,[7],> 54.8 µM
same,TGI,[8],26.7 µM
same,TGI,[9],19.2 µM
same,TGI,[10],> 100 µM
same,TGI,[11],38.5 µM
same,TGI,[12],> 61.3 µM
same,TGI,[13],30.5 µM
same,TGI,[14],15 µM
same,TGI,[15],37.2 µM
same,TGI,[16],28.9 µM
same,TGI,[17],51.6 µM
same,TGI,[18],49.1 µM
same,TGI,[19],> 51.2 µM
same,TGI,[20],31 µM
same,TGI,[21],> 58.4 µM
same,TGI,[22],47.9 µM
same,TGI,[23],36.6 µM
same,TGI,[24],29.8 µM
same,TGI,[25],> 58.8 µM
same,TGI,[26],48.4 µM
same,TGI,[27],30.2 µM
same,TGI,[28],10.9 µM
same,TGI,[29],51.5 µM
same,TGI,[30],35.9 µM
same,TGI,[31],77.7 µM
same,TGI,[32],36.5 µM
same,TGI,[33],35.9 µM
same,TGI,[34],13.2 µM
same,TGI,[35],> 64.4 µM
same,TGI,[36],14.9 µM
same,TGI,[37],30.6 µM
same,TGI,[38],35.4 µM
same,TGI,[39],35.7 µM
same,TGI,[40],44.8 µM
same,GI50,[41],10.1 µM
same,TGI,[41],22.7 µM
same,TGI,[42],28.1 µM
same,TGI,[43],32.6 µM
same,TGI,[44],32.4 µM
same,TGI,[45],> 47.7 µM
same,TGI,[46],38.3 µM
same,TGI,[47],31.4 µM
same,TGI,[48],45.2 µM
same,TGI,[49],35 µM
same,TGI,[50],34.5 µM
same,TGI,[51],39.7 µM
same,TGI,[52],32 µM
same,TGI,[53],33.2 µM
same,TGI,[54],44 µM
same,TGI,[55],24.4 µM
same,GI50,[56],12.6 µM
same,TGI,[56],37.1 µM
same,GI50,[57],7.14 µM
same,TGI,[57],22.9 µM
COC(=O)NC1(NC(=O)OC)NC(=O)c2cc(OC)c(OC)cc2N1,TGI,[1],67 µM
same,TGI,[2],> 100 µM
same,TGI,[3],> 100 µM
same,TGI,[5],> 100 µM
same,TGI,[6],> 100 µM
same,TGI,[7],> 100 µM
same,TGI,[8],60.8 µM
same,TGI,[10],> 100 µM
same,TGI,[12],55.3 µM
same,TGI,[13],> 100 µM
same,TGI,[15],> 100 µM
same,TGI,[17],> 100 µM
same,TGI,[18],> 100 µM
same,TGI,[19],> 100 µM
same,TGI,[20],> 100 µM
same,TGI,[21],> 100 µM
same,TGI,[23],> 100 µM
same,TGI,[24],> 100 µM
same,TGI,[25],> 100 µM
same,TGI,[26],> 100 µM
same,TGI,[27],> 100 µM
same,TGI,[28],67.6 µM
same,TGI,[29],> 100 µM
same,TGI,[31],16 µM
same,TGI,[32],61.9 µM
same,TGI,[36],85.1 µM
same,TGI,[37],> 100 µM
same,TGI,[38],> 100 µM
same,TGI,[39],> 100 µM
same,TGI,[41],> 100 µM
same,TGI,[42],> 100 µM
same,TGI,[43],> 100 µM
same,TGI,[44],> 100 µM
same,TGI,[45],> 100 µM
same,TGI,[46],> 100 µM
same,TGI,[47],> 100 µM
same,TGI,[48],80 µM
same,TGI,[49],> 100 µM
same,TGI,[51],13.7 µM
same,TGI,[52],> 100 µM
same,TGI,[53],> 100 µM
same,TGI,[55],> 100 µM
same,TGI,[56],> 100 µM
same,TGI,[57],> 100 µM
